Data published in US20260274892A1, “MACROCYCLIC BROAD SPECTRUM ANTIBIOTICS” (RQx Pharmaceuticals, Inc., priority 2017, published 2026).
One block for each compound: values may come before it.

Test system: Escherichia coli ATCC 25922
Assay: Minimum inhibitory concentration (MIC), CLSI broth micro-dilution, E. coli
Assay type: cell-based
Conditions: Escherichia coli
Summary of the method: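 Colonies grown 20 h at 35° C on Trypticase Soy agar (MRSA) or Luria agar (E. coli) were suspended in cation-adjusted Mueller Hinton broth with 0.002% Tween-80. Suspensions were added at OD600 0.0005 to 10-point twofold compound dilutions, then incubated 22 h at 35° C.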

[1] = ATCC25922, Table 6, cation adjusted Mueller Hinton Broth + 0.002% Tween-80, 35° C., 22 hours
[2] = ATCC25922, 22 h, Table 7, cation adjusted Mueller Hinton Broth + 0.002% Tween-80, 35° C.
[3] = ATCC25922, 22 h, Table 6, cation adjusted Mueller Hinton Broth + 0.002% Tween-80, 35° C.
[4] = ATCC25922, Table 7, cation adjusted Mueller Hinton Broth + 0.002% Tween-80, 35° C., 22 hours

Structure (SMILES): Cc1nc(-c2ccc(C(C)(C)C)cc2)ncc1C(=O)N[C@@H](CNC(=O)CN)C(=O)N(C)[C@@H]1C(=O)N[C@@H](C)C(=O)N[C@H](C(=O)NCC#N)Cc2ccc(OCCN)c(c2)-c2cc1ccc2OCCN (racemic) [Compound 491, rac-(8S,11S,14S)-3,18-bis(2-aminoethoxy)-N-(cyanomethyl)-11-methyl-14-[methyl-[rac-(2S)-3-[(2-aminoacetyl)amino]-2-[[2-(4-tert-butylphenyl)-4-methyl-pyrimidine-5-carbonyl]amino]propanoyl]amino]-10,13-dioxo-9,12-diazatricyclo[13.3.1.12,6]icosa-1(18),2(20),3,5,15(19),16-hexaene-8-carboxamide]
MIC [1]: 3.1 µM

MIC [2]: 0.75 µM
Structure (SMILES): Cc1nc(-c2ccc(C(C)(C)C)cc2)nc(C)c1C(=O)N[C@@H](CCN)C(=O)N(C)[C@@H]1C(=O)N[C@@H](C)C(=O)N[C@H](C(=O)NCC#N)Cc2ccc(OC[C@@H](N)CO)c(c2)-c2cc1ccc2O (racemic) [Compound 613, rac-(8S,11S,14S)-N-(cyanomethyl)-18-hydroxy-11-methyl-14-[methyl-[rac-(2S)-4-amino-2-[[2-(4-tert-butylphenyl)-4,6-dimethyl-pyrimidine-5-carbonyl]amino]butanoyl]amino]-10,13-dioxo-3-[rac-(2S)-2-amino-3-hydroxy-propoxy]-9,12-diazatricyclo[13.3.1.12,6]icosa-1(18),2(20),3,5,15(19),16-hexaene-8-carboxamide]

MIC [2]: 0.19 µM
Structure (SMILES): Cc1nc(-c2ccc(OC3CCCCC3)cc2)nc(C)c1C(=O)N[C@@H](CNS(N)(=O)=O)C(=O)N(C)[C@@H]1C(=O)N[C@@H](C)C(=O)N[C@H](C(=O)NCC#N)Cc2ccc(OC[C@H](O)CN)c(c2)-c2cc1ccc2OC[C@H](O)CN (racemic) [Compound 578, rac-(8S,11S,14S)-N-(cyanomethyl)-11-methyl-14-[methyl-[rac-(2S)-2-[[2-[4-(cyclohexoxy)phenyl]-4,6-dimethyl-pyrimidine-5-carbonyl]amino]-3-(sulfamoylamino)propanoyl]amino]-10,13-dioxo-3,18-bis[rac-(2R)-3-amino-2-hydroxy-propoxy]-9,12-diazatricyclo[13.3.1.12,6]icosa-1(18),2(20),3,5,15(19),16-hexaene-8-carboxamide]

MIC [2]: 0.25 µM
Structure (SMILES): Cc1nc(-c2ccc(C(C)(C)C)cc2)nc(C)c1C(=O)N[C@@H](CNS(N)(=O)=O)C(=O)N(C)[C@@H]1C(=O)N[C@@H](C)C(=O)N[C@H](C(=O)NCC#N)Cc2ccc(OC[C@@H](O)CN)c(c2)-c2cc1ccc2OC[C@@H](O)CN (racemic) [Compound 581, rac-(8S,11S,14S)-N-(cyanomethyl)-11-methyl-14-[methyl-[rac-(2S)-2-[[2-(4-tert-butylphenyl)-4,6-dimethyl-pyrimidine-5-carbonyl]amino]-3-(sulfamoylamino)propanoyl]amino]-10,13-dioxo-3,18-bis[rac-(2S)-3-amino-2-hydroxy-propoxy]-9,12-diazatricyclo[13.3.1.12,6]icosa-1(18),2(20),3,5,15(19),16-hexaene-8-carboxamide]

MIC [3]: 0.094 µM
Structure (SMILES): Cc1nc(-c2ccc(OC3CCCCC3)cc2)nc(N)c1C(=O)N[C@@H](CCN)C(=O)N(C)[C@@H]1C(=O)N[C@@H](C)C(=O)N[C@H](C(=O)NCC#N)Cc2ccc(OCCN)c(c2)-c2cc1ccc2OCCN (racemic) [Compound 547, rac-(8S,11S,14S)-3,18-bis(2-aminoethoxy)-N-(cyanomethyl)-11-methyl-14-[methyl-[rac-(2S)-4-amino-2-[[4-amino-2-[4-(cyclohexoxy)phenyl]-6-methyl-pyrimidine-5-carbonyl]amino]butanoyl]amino]-10,13-dioxo-9,12-diazatricyclo[13.3.1.12,6]icosa-1(18),2(20),3,5,15(19),16-hexaene-8-carboxamide]

Structure (SMILES): CCCCOc1c(F)c(F)c(-c2cc(C)c(C(=O)N[C@@H](CCN)C(=O)N(C)[C@@H]3C(=O)N[C@@H](C)C(=O)N[C@H](C(=O)NCC#N)Cc4ccc(OCCN)c(c4)-c4cc3ccc4OCCN)c(C)n2)c(F)c1F (racemic) [Compound 367, rac-(8S,11S,14S)-3,18-bis(2-aminoethoxy)-N-(cyanomethyl)-11-methyl-14-[methyl-[rac-(2S)-4-amino-2-[[6-(4-butoxy-2,3,5,6-tetrafluoro-phenyl)-2,4-dimethyl-pyridine-3-carbonyl]amino]butanoyl]amino]-10,13-dioxo-9,12-diazatricyclo[13.3.1.12,6]icosa-1(18),2(20),3,5,15(19),16-hexaene-8-carboxamide]
MIC [3]: 0.5 µM

MIC [3]: 0.19 µM
Structure (SMILES): Cc1nc(-c2ccc(OCCCCC(C)(C)C)cc2)nc(C)c1C(=O)N[C@@H](CCN)C(=O)N(C)[C@@H]1C(=O)N[C@@H](C)C(=O)N[C@H](C(=O)NCC#N)Cc2ccc(OCCN)c(c2)-c2cc1ccc2OCCN (racemic) [Compound 357, rac-(8S,11S,14S)-3,18-bis(2-aminoethoxy)-N-(cyanomethyl)-11-methyl-14-[methyl-[rac-(2S)-4-amino-2-[[2-[4-(5,5-dimethylhexoxy)phenyl]-4,6-dimethyl-pyrimidine-5-carbonyl]amino]butanoyl]amino]-10,13-dioxo-9,12-diazatricyclo[13.3.1.12,6]icosa-1(18),2(20),3,5,15(19),16-hexaene-8-carboxamide]

Structure (SMILES): Cc1nc(-c2ccc(C(C)(C)C)cc2)nc(C)c1C(=O)N[C@@H](CCN)C(=O)N(C)[C@@H]1C(=O)N[C@@H](C)C(=O)N[C@H](C(=O)NCC#N)Cc2cc(NC(N)=O)c(OCCN)c(c2)-c2cc1ccc2OCCN (racemic) [Compound 619, rac-(8S,11S,14S)-3,18-bis(2-aminoethoxy)-N-(cyanomethyl)-11-methyl-14-[methyl-[rac-(2S)-4-amino-2-[[2-(4-tert-butylphenyl)-4,6-dimethyl-pyrimidine-5-carbonyl]amino]butanoyl]amino]-10,13-dioxo-4-ureido-9,12-diazatricyclo[13.3.1.12,6]icosa-1(18),2(20),3,5,15(19),16-hexaene-8-carboxamide]
MIC [4]: 0.13 µM

MIC [2]: 0.25 µM
Structure (SMILES): COc1c(OC[C@H](O)CN)cc2cc1-c1cc(cc(OC[C@H](O)CN)c1OC)[C@H](N(C)C(=O)[C@H](CCN)NC(=O)c1c(C)nc(-c3ccc(C(C)(C)C)cc3)nc1C)C(=O)N[C@@H](C)C(=O)N[C@H](C(=O)NCC#N)C2 (racemic) [Compound 591, rac-(8S,11S,14S)-N-(cyanomethyl)-3,18-dimethoxy-11-methyl-14-[methyl-[rac-(2S)-4-amino-2-[[2-(4-tert-butylphenyl)-4,6-dimethyl-pyrimidine-5-carbonyl]amino]butanoyl]amino]-10,13-dioxo-4,17-bis[rac-(2R)-3-amino-2-hydroxy-propoxy]-9,12-diazatricyclo[13.3.1.12,6]icosa-1(18),2(20),3,5,15(19),16-hexaene-8-carboxamide]

MIC [3]: 0.5 µM
Structure (SMILES): C[C@@H]1NC(=O)[C@@H](N(C)C(=O)[C@H](CCN)NC(=O)C2C3CC(c4ccc(C(C)(C)C)cc4)CC32)c2ccc(OCCN)c(c2)-c2cc(ccc2OCCN)C[C@@H](C(=O)NCC#N)NC1=O (some centres unmarked) [Compound 488]

MIC [3]: 0.13 µM
Structure (SMILES): Cc1cc(-c2ccc(C(C)(C)C)cc2)cc(N)c1C(=O)N[C@@H](CCN)C(=O)N(C)[C@@H]1C(=O)N[C@@H](C)C(=O)N[C@H](C(=O)NCC#N)Cc2ccc(OCCN)c(c2)-c2cc1ccc2OCCN (racemic) [Compound 373, rac-(8S,11S,14S)-3,18-bis(2-aminoethoxy)-N-(cyanomethyl)-11-methyl-14-[methyl-[rac-(2S)-4-amino-2-[[2-amino-4-(4-tert-butylphenyl)-6-methyl-benzoyl]amino]butanoyl]amino]-10,13-dioxo-9,12-diazatricyclo[13.3.1.12,6]icosa-1(18),2(20),3,5,15(19),16-hexaene-8-carboxamide]

Structure (SMILES): Cc1nc(-c2ccc(OCCC(C)(C)C)cc2)nc(C)c1C(=O)N[C@@H](CCN)C(=O)N(C)[C@@H]1C(=O)N[C@@H](C)C(=O)N[C@H](C(=O)NCC#N)Cc2ccc(OCCN)c(c2)-c2cc1ccc2O (racemic) [Compound 528, rac-(8S,11S,14S)-3-(2-aminoethoxy)-N-(cyanomethyl)-18-hydroxy-11-methyl-14-[methyl-[rac-(2S)-4-amino-2-[[2-[4-(3,3-dimethylbutoxy)phenyl]-4,6-dimethyl-pyrimidine-5-carbonyl]amino]butanoyl]amino]-10,13-dioxo-9,12-diazatricyclo[13.3.1.12,6]icosa-1(18),2(20),3,5,15(19),16-hexaene-8-carboxamide]
MIC [3]: 0.063 µM

Structure (SMILES): CC(=O)Nc1cc2cc(c1O)-c1cc(ccc1OCCN)C[C@@H](C(=O)NCC#N)NC(=O)[C@H](C)NC(=O)[C@H]2N(C)C(=O)[C@H](CCN)NC(=O)c1c(C)nc(-c2ccc(C(C)(C)C)cc2)nc1C (racemic) [Compound 620, rac-(8S,11S,14S)-17-acetamido-3-(2-aminoethoxy)-N-(cyanomethyl)-18-hydroxy-11-methyl-14-[methyl-[rac-(2S)-4-amino-2-[[2-(4-tert-butylphenyl)-4,6-dimethyl-pyrimidine-5-carbonyl]amino]butanoyl]amino]-10,13-dioxo-9,12-diazatricyclo[13.3.1.12,6]icosa-1(18),2(20),3,5,15(19),16-hexaene-8-carboxamide]
MIC [4]: 0.5 µM

Structure (SMILES): Cc1c(C(=O)N[C@@H](CCN)C(=O)N(C)[C@@H]2C(=O)N[C@@H](C)C(=O)N[C@H](C(=O)NCC#N)Cc3ccc(OCCN)c(c3)-c3cc2ccc3OCCN)cnn(-c2ccc(C(C)(C)C)cc2)c1=O (racemic) [Compound 387, rac-(8S,11S,14S)-3,18-bis(2-aminoethoxy)-N-(cyanomethyl)-11-methyl-14-[methyl-[rac-(2S)-4-amino-2-[[1-(4-tert-butylphenyl)-5-methyl-6-oxo-pyridazine-4-carbonyl]amino]butanoyl]amino]-10,13-dioxo-9,12-diazatricyclo[13.3.1.12,6]icosa-1(18),2(20),3,5,15(19),16-hexaene-8-carboxamide]
MIC [1]: 8 µM
